The test system of test [1] is α-isomaltosylglucosaccharide-forming enzyme. Briefly: Influence of metal ions on activity of α-isomaltosylglucosaccharide-forming enzyme (Strain C9). Conditions: for Relative activity: in the presence of 1 mM of each metal ion, None = 100. Type of test: biochemical, Bacillus globisporus C9. On the procedure: The activities of these enzymes were assayed as follows: The α-isomaltosylglucosaccharide-forming enzyme of the present invention was assayed for enzymatic activity by dissolving maltotriose in 100 mM acetate buffer (pH 6.0) to give a concentration of 2% (w/v) for a substrate solution, adding a 0.5 ml of an enzyme solution to a 0.5 ml of the substrate solution, enzymatically reacting the mixture solution at 35° C. for 60 min, suspending the reaction mixture by heating at 100° C. for 10 min, and quantifying maltose, among the isomaltosyl maltose and maltose formed in the reaction mixture, by high-performance liquid chromatography (abbreviated as “HPLC” hereinafter). HPLC was carried out using “YMC PACK ODS-AQ303 column” commercialized by YMC Co., Ltd., Tokyo, Japan, at a column temperature of 40° C. and a flow rate of 0.5 ml/min of water; and using “RI-8012”, a differential refractometer commercialized by Tosoh Corporation, Tokyo, Japan. One unit activity of the α-isomaltosylglucosaccharide-forming enzyme is defined as the enzyme amount that forms one micromole of maltose per minute under the above enzymatic reaction conditions.
The influence of metal ions on the activity of α-isomaltosylglucosaccharide-forming enzyme was examined in the presence of 1 mM of each metal-ion according to the assay for the enzyme activity.

Test [2] concerns α-isomaltosyl-transferring enzyme. Description: Influence of metal ions on activity of α-isomaltosyl-transferring enzyme (Strain C9). The format is biochemical, Bacillus globisporus C9. Conditions: in the presence of 1 mM of each metal ion, None = 100. On the procedure: (§1) The α-isomaltosyl-transferring enzyme was assayed for enzymatic activity by dissolving panose in 100 mM acetate buffer (pH 6.0) to give a concentration of 2% (w/v) for a substrate solution, adding a 0.5 ml of an enzyme solution to 0.5 ml of the substrate solution, enzymatically reacting the mixture solution at 35° C. for 30 min, suspending the reaction mixture by boiling for 10 min, and quantifying glucose, among the cyclotetrasaccharide and glucose formed in the reaction mixture, by the glucose oxidase method. One unit activity of the α-isomaltosyl-transferring enzyme is defined as the enzyme amount that forms one micromole of glucose per minute under the above enzymatic reaction conditions.
(§2) The influence of metal ions on the activity of α-isomaltosyl-transferring enzyme was examined in the presence of 1 mM of each metal-ion according to the assay for the enzyme activity.

For test [3] the test system is unchanged. Description: Influence of metal ions on activity of α-isomaltosyl-transferring enzyme (Strain C11). Conditions: in the presence of 1 mM of each metal ion; None = 100. The format is biochemical, Bacillus globisporus C11. On the procedure: as §1, §2
In test [4] the test system is α-isomaltosylglucosaccharide-forming enzyme. Briefly: Influence of metal ions on enzyme activity, Experiment 4-2 (Strain C11). Conditions: for Relative activity: in the presence of 1 mM of each metal ion, None = 100. Type of test: biochemical, Bacillus globisporus C11.
For test [5], the system named is α-isomaltosylglucosaccharide-forming enzyme from Bacillus globisporus C11 strain. Description: Specificity of saccharide transferring reaction acceptor, enzyme of Strain C11. Type of test: biochemical. Conditions: 1.6% acceptor, 4% PINE-DEX #100 as donor, one unit/g donor, 30° C., pH 6.0, 24 hours; GLC or HPLC. On the procedure:
(§3) Using different saccharides, it was tested whether the saccharides were used as saccharide transferring reaction acceptors for the α-isomaltosylglucosaccharide-forming enzyme. A 1.6% solution, as a solution of saccharide transferring reaction acceptor, of D-glucose, D-xylose, L-xylose, D-galactose, D-fructose, D-mannose, D-arabinose, D-fucose, L-sorbose, L-rhamnose, methyl-α-glucopyranoside (methyl-α-glucose), methyl-β-glucopyranoside ([…]), N-acetyl-glucosamine, sorbitol, α,α-trehalose, isomaltose, isomaltotriose, cellobiose, gentibiose, maltitol, lactose, sucrose, α-cyclodextrin, β-cyclodextrin, or γ-cyclodextrin, was prepared. To each solution with a saccharide concentration was added “PINE-DEX #100”, a partial starch hydrolysate, as a saccharide donor, to give a concentration of 4%, and admixed with one unit/g saccharide donor, d.s.b., of either of purified specimens of α-isomaltosylglucosaccharide-forming enzyme from Bacillus globisporus C9 strain obtained by the method in Experiment 2-1, Bacillus globisporus C11 strain obtained by the method in Experiment 4-1. The resulting mixture solutions were incubated at 30° C. and pH 6.0 except that the enzyme from Arthrobacter globiformis A19 strain was incubated at pH 8.4 for 24 hours. The reaction mixtures of the post-enzymatic reactions were analyzed on gas chromatography (abbreviated as “GLC” hereinafter) for monosaccharides and disaccharides as acceptors, and on HPLC for trisaccharides as acceptors to confirm whether these saccharides could be used as their saccharide transferring reaction acceptors. In the case of performing GLC, the following apparatuses and conditions are used: GLC apparatus, “GC-16A” commercialized by Shimadzu Corporation, Tokyo, Japan; column, a stainless-steel column, 3 mm in diameter and 2 m in length, packed with 2% “SILICONE OV-17/CHROMOSOLV W”, commercialized by GL Sciences Inc., Tokyo, Japan; carrier gas, nitrogen gas at a flow rate of 40 ml/min under temperature conditions of increasing from 160° C. to 320° C. at an increasing temperature rate of 7.5° C./min; and detection, a hydrogen flame ionization detector.
(§4) In the case of HPLC analysis, the apparatuses and conditions used were: HPLC apparatus, “CCPD” commercialized by Tosoh Corporation, Tokyo, Japan; column, “ODS-AQ-303” commercialized by YMC Co., Ltd., Tokyo, Japan; eluent, water at a flow rate of 0.5 ml/min; and detection, a differential refractometer.

Test [6] has as its system α-isomaltosylglucosaccharide-forming enzyme from Bacillus globisporus C9. Description: Action of α-isomaltosylglucosaccharide-forming enzyme on saccharides as substrates (TLC), enzyme of Strain C9. The arrangement: key: −: it showed no change; +: it showed a slight reduction of the color of substrate spot and the formation of other reaction product; ++: it showed a high reduction of the color of substrate spot and the formation of other reaction product; +++: it showed a substantial disappearance of the color of substrate spot and the formation of other reaction product. Conditions: two units/g substrate, substrate 2% (w/v), 30° C., pH 6.0, 24 hours. Type of test: biochemical. The procedure: (§5) The action of α-isomaltosylglucosaccharide-forming enzyme on saccharides as substrates was tested. First, a solution of maltose, maltotriose, maltotetraose, maltopentaose, maltohexaose, maltoheptaose, isomaltose, isomaltotriose, panose, isopanose, α,α-trehalose (may be abbreviated as “trehalose” hereinafter), kojibiose, nigerose, neotrehalose, cellobiose, gentibiose, maltitol, maltotriitol, lactose, sucrose, erlose, selaginose, maltosyl glucoside, or isomaltosyl glucoside was prepared. To each of the above solutions was added two units/g substrate of the purified specimen of α-isomaltosylglucosaccharide-forming enzyme from Bacillus globisporus C9 in Experiment 2-1 or Bacillus globisporus C11 in Experiment 4-1, and each resulting solution was adjusted to give a substrate concentration of 2% (w/v) and incubated at 30° C. and pH 6.0 for 24 hours. The solutions before and after the enzymatic reactions were respectively subjected to thin-layer chromatography (abbreviated as “TLC” hereinafter). TLC was carried out in such a manner of separating saccharides by developing the solutions twice each using, as a developer, a mixture solution of n-butanol, pyridine, and water (=6:4:1), and, as a thin-layer plate, “[…] 60”, an aluminum plate (20×20 cm) for TLC commercialized by Merck & Co., Inc., Rahway, USA.; detecting the total saccharides in each mixture solution by spraying a mixture of sulfuric acid and methanol onto the aluminum plates to develop color of the total saccharides and detecting non-reducing saccharides in each mixture solution by the diphenylamine-aniline method.

Test [7] relates to α-isomaltosylglucosaccharide-forming enzyme from Bacillus globisporus C11. Description: Action of α-isomaltosylglucosaccharide-forming enzyme on saccharides as substrates (TLC), enzyme of Strain C11. Type of test: biochemical. The arrangement: key: −: it showed no change; +: it showed a slight reduction of the color of substrate spot and the formation of other reaction product; ++: it showed a high reduction of the color of substrate spot and the formation of other reaction product; +++: it showed a substantial disappearance of the color of substrate spot and the formation of other reaction product. To be noted: two units/g substrate, substrate 2% (w/v), 30° C., pH 6.0, 24 hours. The procedure:
as §5

The test system of test [8] is α-isomaltosylglucosaccharide-forming enzyme from Bacillus globisporus C9 strain. Description: Specificity of saccharide transferring reaction acceptor, enzyme of Strain C9. Type of test: biochemical. To be noted: 1.6% acceptor, 4% PINE-DEX #100 as donor, one unit/g donor, 30° C., pH 6.0, 24 hours; GLC or HPLC. The procedure:
as §3, §4

The source of these data is patent US20080241904A1, “PROCESS FOR PRODUCING ISOMALTOSE AND USES THEREOF” (KABUSHIKI KAISHA HAYASHIBARA SEIBUTSU KAGAKU KENKYUJO, priority 2001, published 2008).

`[Al+3]` [Al^3+]: the Relative activity in test [1] came to 99%; in test [2], 103%; in test [3], 89%; in test [4] it was 100%.

Turning to `[Ba+2]` [Ba^2+], the “Effect on enzyme activity (in words)” value in test [1] (1 mM, summary of Table 2) was “inhibited”; in test [4] (1 mM, summary of Table 6) it was “inhibited”. The Relative activity in test [1] worked out at 65%; in test [2], 102%; in test [3], 90%; in test [4] it was 65%.

Consider `[Fe+2]` [Fe^2+], for which the Relative activity in test [2] is recorded as 96%; in test [2] (listed as Fe^3+), 105%; in test [4], 100%; in test [4] (listed as Fe^3+) it was 102%.

With `OC[C@H]1O[C@H](OC[C@H]2O[C@H](OC[C@H]3OC(O)[C@H](O)[C@@H](O)[C@@H]3O)[C@H](O)[C@@H](O)[C@@H]2O)[C@H](O)[C@@H](O)[C@@H]1O` (stereo partly drawn) [Isomaltotriose, isomaltotriose], the “Product of saccharide transferring reaction, Enzyme of Strain C11” value (“Product … of Strain C11” for short) in test [5] is on record as “++ (a saccharide-transferred product was detected in an amount of at least ten percent through transferring reaction to acceptor)”. The “Enzymatic action, Enzyme of Strain C9” value in test [6] is “−”. For the same compound, the “Enzymatic action, Enzyme of Strain C11” value in test [7] is reported as “−”. The “Product of saccharide transferring reaction, Enzyme of Strain C9” value (from here on “Product … of Strain C9”) in test [8] is “++ (a saccharide-transferred product was detected in an amount of at least ten percent through transferring reaction to acceptor)”.

Regarding `OC[C@H]1O[C@@H](O[C@H]2[C@H](O)[C@@H](O)C(O)O[C@@H]2CO)[C@H](O)[C@@H](O)[C@H]1O` (stereo partly drawn) [Lactose, lactose], the “Product … of Strain C11” value in test [5] is on record as “++ (a saccharide-transferred product was detected in an amount of at least ten percent through transferring reaction to acceptor)”. The “Enzymatic action, Enzyme of Strain C9” value in test [6] was “−”. Moreover, the “Enzymatic action, Enzyme of Strain C11” value in test [7] was “−”. Besides, the “Product … of Strain C9” value in test [8] is reported as “++ (a saccharide-transferred product was detected in an amount of at least ten percent through transferring reaction to acceptor)”.

Turning to `OC[C@@H](O)[C@@H](O[C@H]1O[C@H](CO)[C@@H](O)[C@H](O)[C@H]1O)[C@H](O)[C@@H](O)CO` [Maltitol, maltitol], in test [5], the “Product … of Strain C11” value is listed as “++ (a saccharide-transferred product was detected in an amount of at least ten percent through transferring reaction to acceptor)”. In addition, the “Enzymatic action, Enzyme of Strain C9” value in test [6] is on record as “−”. Also, the “Enzymatic action, Enzyme of Strain C11” value in test [7] was “−”. In addition, the “Product … of Strain C9” value in test [8] is “++ (a saccharide-transferred product was detected in an amount of at least ten percent through transferring reaction to acceptor)”.

`[Mg+2]` [Mg^2+]: the Relative activity in test [1] is listed as 100%; in test [3], 91%.

`[Ni+2]` [Ni^2+]: the Relative activity in test [2] was 102%; in test [3], 89%; in test [4], 93%.

For the compound `OC[C@H]1O[C@@](CO)(O[C@H]2O[C@H](CO)[C@@H](O)[C@H](O)[C@H]2O)[C@@H](O)[C@@H]1O` [Sucrose, sucrose], the “Product … of Strain C11” value in test [5] is recorded as “++ (a saccharide-transferred product was detected in an amount of at least ten percent through transferring reaction to acceptor)”. Also, the “Enzymatic action, Enzyme of Strain C9” value in test [6] is “−”. Moreover, the “Enzymatic action, Enzyme of Strain C11” value in test [7] was “−”. Besides, the “Product … of Strain C9” value in test [8] is listed as “++ (a saccharide-transferred product was detected in an amount of at least ten percent through transferring reaction to acceptor)”.

As to `OC[C@H]1O[C@H](O[C@H]2O[C@H](CO)[C@@H](O)[C@H](O)[C@H]2O)[C@H](O)[C@@H](O)[C@@H]1O` [Trehalose, α,α-trehalose], the “Product … of Strain C11” value in test [5] is on record as “++ (a saccharide-transferred product was detected in an amount of at least ten percent through transferring reaction to acceptor)”. Moreover, the “Enzymatic action, Enzyme of Strain C9” value in test [6] is “−”. Also, the “Enzymatic action, Enzyme of Strain C11” value in test [7] is reported as “−”. Besides, the “Product … of Strain C9” value in test [8] is on record as “++ (a saccharide-transferred product was detected in an amount of at least ten percent through transferring reaction to acceptor)”.
